Laboratory results published in ChEMBL document CHEMBL3727366, “Heterocyclic compounds for the treatment of stress-related conditions” (2013).
pKi: −log10 of the molar value. Activity calls are given as the source filed them. No rule for the calls is given here.

Columns and labels:
[1] = test system: Rattus norvegicus; assay: Inhibition of restraint stress-induced defecation in Wistar rat at 5 mL/kg, po dosed 1 or 2 hrs before restraint stress; type: functional, organism-based
[2] = test system: Rattus norvegicus; assay: Inhibition of tail-pinch stress-induced feeding behavior in Wistar rat at 5 mL/kg, po dosed 1 or 2 hrs before tail-pinch stimulus; type: functional, organism-based
[3] = target: T1, Prolactin-releasing peptide receptor (Homo sapiens, UniProt P49683); assay: Displacement of [3H]-PrRP from human GPR10 receptor expressed in HEK293 cell membranes incubated for 90 mins by liquid scintillation counting method
T1 sequence (P49683 whole entry): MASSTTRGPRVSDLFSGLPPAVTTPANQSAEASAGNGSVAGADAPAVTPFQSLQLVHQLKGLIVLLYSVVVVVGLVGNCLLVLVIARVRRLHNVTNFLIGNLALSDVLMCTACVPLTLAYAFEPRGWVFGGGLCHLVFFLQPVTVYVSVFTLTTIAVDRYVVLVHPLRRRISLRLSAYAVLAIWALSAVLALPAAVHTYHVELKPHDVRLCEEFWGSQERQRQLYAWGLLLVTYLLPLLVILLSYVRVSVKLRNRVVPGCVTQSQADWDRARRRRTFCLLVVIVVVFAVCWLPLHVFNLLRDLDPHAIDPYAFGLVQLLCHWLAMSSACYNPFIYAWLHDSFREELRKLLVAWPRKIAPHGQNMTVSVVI

Row | SMILES | inhibition [1] | inhibition [2] | pKi [3]
1 | COn1c(N[C@H](c2ccc(Cl)cc2)C(C)C)nc2c(c1=O)CN(C(=O)c1ccc3c(c1)CCC(=O)N3C)CC2 | Active | Active | 7.62
2 | CC#CCn1c(N[C@@H](C)c2ccc(C(F)(F)F)cc2)nc2c(c1=O)CN(C(=O)c1ccc(Cl)cc1)CC2 | Active | Active | –
3 | COn1c(N[C@H](c2ccc(Cl)cc2)C(C)C)nc2c(c1=O)CN(C(=O)c1cc3ccccc3cn1)CC2 | Active | Active | 7.59
4 | C=Cc1ccc(C(=O)N2CCc3nc(N[C@@H](C)c4ccc(C(F)(F)F)cc4)n(OC)c(=O)c3C2)cc1 | Active | Active | –
5 | CCOc1ccc(C(=O)N2CCc3nc(N[C@@H](C)c4ccc(C(F)(F)F)cc4)n(OC)c(=O)c3C2)cc1 | Active | Active | –
6 | C#CCCn1c(N[C@@H](C)c2ccc(C(F)(F)F)cc2)nc2c(c1=O)CN(C(=O)c1ccc(C#N)cc1F)CC2 | Active | Active | –
7 | C#CCn1c(N[C@@H](C)c2ccc(C(F)(F)F)cc2)nc2c(c1=O)CN(C(=O)c1ccc(Cl)cc1)CC2 | Active | Active | –
8 | CC#CCn1c(N[C@@H](C)c2ccc(C(F)(F)F)cc2)nc2c(c1=O)CN(C(=O)c1ccc(C#N)cc1)CC2 | Active | Active | –
9 | C[C@H](Nc1nc2c(c(=O)n1N(C)C)CN(C(=O)c1ccc(Cl)cc1)CC2)c1ccc(Cl)cc1 | Active | Active | –
10 | COc1cc(Cl)ccc1C(=O)N1CCc2nc(N[C@@H](C)c3ccc(C(F)(F)F)cc3)n(OC)c(=O)c2C1 | Active | Active | –
11 | C#CCCn1c(N[C@@H](C)c2ccc(C(F)(F)F)cc2)nc2c(c1=O)CN(C(=O)c1ccc(-c3cnco3)cc1)CC2 | Active | Active | –
12 | CC#CCn1c(N[C@@H](C)c2ccc(C(F)(F)F)cc2)nc2c(c1=O)CN(C(=O)c1ccc(-c3cnco3)cc1)CC2 | Active | Active | –
13 | COn1c(NCc2ccc(Cl)cc2)nc2c(c1=O)CN(C(=O)c1ccc(Cl)cc1)CC2 | Active | Active | –
14 | C#CCn1c(N[C@@H](C)c2ccc(Cl)cc2)nc2c(c1=O)CN(C(=O)c1ccc(Cl)cc1)CC2 | Active | Active | –
15 | COn1c(N[C@@H](C)c2ccc(C(F)(F)F)cc2)nc2c(c1=O)CN(C(=O)c1cc3ccccc3s1)CC2 | – | – | 7.82
16 | COn1c(NC(c2ccc(Cl)cc2)C(C)C)nc2c(c1=O)CN(C(=O)c1ccc(Cl)cc1)CC2 (stereo unspecified) | Active | Active | –
17 | C[C@H](Nc1nc2c(c(=O)n1N(C)C)CN(C(=O)COc1ccc(Cl)cc1)CC2)c1ccc(C(F)(F)F)cc1 | Active | Active | –
18 | C#CCn1c(N[C@@H](C)c2ccc(C(F)(F)F)cc2)nc2c(c1=O)CN(C(=O)c1c(F)cccc1F)CC2 | Active | Active | –
19 | C[C@H](Nc1nc2c(c(=O)n1N(C)C)CN(C(=O)COc1ccc(Cl)cc1)CC2)c1ccc(Cl)cc1 | Active | Active | –
20 | C[C@H](Nc1nc2c(c(=O)n1N(C)C)CN(C(=O)c1c(F)cc(F)cc1F)CC2)c1ccc(C(F)(F)F)cc1 | Active | Active | –
21 | CC#CCn1c(N[C@@H](C)c2ccc(C(F)(F)F)cc2)nc2c(c1=O)CN(C(=O)c1ccc3c(c1)CCC(=O)N3)CC2 | Active | Active | –
22 | COn1c(N[C@@H](C)c2ccc(Cl)cc2)nc2c(c1=O)CN(C(=O)c1ccc(Cl)cc1)CC2 | Active | Active | –
23 | CC#CCn1c(N[C@@H](C)c2ccc(C(F)(F)F)cc2)nc2c(c1=O)CN(C(=O)c1ccc(C#N)cc1F)CC2 | Active | Active | –
24 | CCC(Nc1nc2c(c(=O)n1OC)CN(C(=O)c1ccc(Cl)cc1)CC2)c1ccc(Cl)cc1 (stereo unspecified) | Active | Active | –
25 | CC#CCn1c(N[C@@H](C)c2ccc(C(F)(F)F)cc2)nc2c(c1=O)CN(C(=O)c1ccc(C)c(C)c1)CC2 | Active | Active | –
26 | C#CCCn1c(N[C@@H](C)c2ccc(C(F)(F)F)cc2)nc2c(c1=O)CN(C(=O)c1ccc(-n3ccnc3)cc1)CC2 | Active | Active | –
27 | CC#CCn1c(N[C@@H](C)c2ccc(C(F)(F)F)cc2)nc2c(c1=O)CN(C(=O)c1ccc3cccnc3c1)CC2 | Active | Active | –
28 | COn1c(N[C@@H](C)c2ccc(C(F)(F)F)cc2)nc2c(c1=O)CN(C(=O)c1ccc(C#N)cc1F)CC2 | Active | Active | –

Row | SMILES | inhibition [1] | inhibition [2] | pKi [3]
29 | C[C@H](Nc1nc2c(c(=O)n1N(C)C)CN(C(=O)c1ccc(C#N)cc1F)CC2)c1ccc(C(F)(F)F)cc1 | Active | Active | –
30 | COn1c(N[C@@H](C)c2ccc(C(F)(F)F)cc2)nc2c(c1=O)CN(C(=O)c1ccc3c(c1)CCC(=O)N3C)CC2 | Active | Active | –
31 | COn1c(N[C@@H](C)c2ccc(Cl)cc2)nc2c(c1=O)CN(C(=O)c1cc3cccnc3s1)CC2 | Active | Active | –
32 | C#CCn1c(N[C@@H](C)c2ccc(C(F)(F)F)cc2)nc2c(c1=O)CN(C(=O)c1cccc(C#N)c1)CC2 | Active | Active | –
33 | COn1c(N[C@@H](C)c2ccc(C(F)(F)F)cc2)nc2c(c1=O)CN(C(=O)c1cc3cc(Cl)ccc3o1)CC2 | Active | Active | –
34 | COn1c(N[C@@H](C)c2ccc(C(F)(F)F)cc2)nc2c(c1=O)CN(C(=O)c1ccc(Cl)c(C)c1)CC2 | Active | Active | –
35 | CC#CCn1c(N[C@@H](C)c2ccc(C(F)(F)F)cc2)nc2c(c1=O)CN(C(=O)c1cnc3ccccc3c1)CC2 | Active | Active | –
36 | COn1c(N[C@@H](C)c2ccc(C(F)(F)F)cc2)nc2c(c1=O)CN(C(=O)c1ccc(OC(F)(F)F)cc1)CC2 | Active | Active | –
37 | COn1c(N[C@@H](C)c2ccc(C(F)(F)F)cc2)nc2c(c1=O)CN(C(=O)c1cnc3ccccc3c1)CC2 | Active | Active | –
38 | CC#CCn1c(N[C@@H](C)c2ccc(C(F)(F)F)cc2)nc2c(c1=O)CN(C(=O)c1ccc(-n3ccnc3)cc1)CC2 | Active | Active | –
39 | COn1c(N2CCCC2c2ccc(C(F)(F)F)cc2)nc2c(c1=O)CN(C(=O)c1ccc(Cl)cc1)CC2 (stereo unspecified) | Active | Active | –
40 | COn1c(NCc2ccc(C(F)(F)F)cc2)nc2c(c1=O)CN(C(=O)c1ccc(Cl)cc1)CC2 | Active | Active | –
41 | CC#CCn1c(N[C@@H](C)c2ccc(C(F)(F)F)cc2)nc2c(c1=O)CN(C(=O)c1ccc3ccccc3n1)CC2 | Active | Active | –
42 | COn1c(N[C@@H](C)c2ccc(C(F)(F)F)cc2)nc2c(c1=O)CN(C(=O)c1ccc(C#N)cc1)CC2 | Active | Active | –
43 | CC#CCn1c(N[C@@H](C)c2ccc(C(F)(F)F)cc2)nc2c(c1=O)CN(C(=O)c1ccc(OC)cc1)CC2 | Active | Active | –
44 | CC#CCn1c(N[C@@H](C)c2ccc(C(F)(F)F)cc2)nc2c(c1=O)CN(C(=O)c1ccc3c(c1)OCO3)CC2 | Active | Active | –
45 | C#CCn1c(N[C@@H](C)c2ccc(C(F)(F)F)cc2)nc2c(c1=O)CN(C(=O)c1ccc(C#N)cc1F)CC2 | Active | Active | –
46 | COn1c(N[C@@H](C)c2ccc(C(F)(F)F)cc2)nc2c(c1=O)CN(C(=O)c1ccc(Cl)cc1)CC2 | Active | Active | –
47 | C#CCCn1c(N[C@@H](C)c2ccc(C(F)(F)F)cc2)nc2c(c1=O)CN(C(=O)c1nc3ccccc3[nH]1)CC2 | Active | Active | –
48 | CC#CCn1c(N[C@@H](C)c2ccc(C(F)(F)F)cc2)nc2c(c1=O)CN(C(=O)c1cc3ccccn3n1)CC2 | Active | Active | –
49 | C[C@H](Nc1nc2c(c(=O)n1N(C)C)CN(C(=O)c1ccc(Cl)cc1)CC2)c1ccc(C(F)(F)F)cc1 | Active | Active | –
50 | C#CCCn1c(N[C@@H](C)c2ccc(C(F)(F)F)cc2)nc2c(c1=O)CN(C(=O)c1ccc(C(=O)N(C)C)cc1)CC2 | Active | Active | –
51 | COn1c(NC(CCC(F)(F)F)c2ccc(Cl)cc2)nc2c(c1=O)CN(C(=O)c1ccc(Cl)cc1)CC2 (stereo unspecified) | Active | Active | –
52 | C#CCCn1c(N[C@@H](C)c2ccc(C(F)(F)F)cc2)nc2c(c1=O)CN(C(=O)c1ccc(C#N)cc1)CC2 | Active | Active | –
53 | C[C@H](Nc1nc2c(c(=O)n1N1CCOCC1)CN(C(=O)c1ccc(C#N)cc1)CC2)c1ccc(C(F)(F)F)cc1 | Active | Active | –
54 | C#CCCn1c(N[C@@H](C)c2ccc(C(F)(F)F)cc2)nc2c(c1=O)CN(C(=O)c1ccc(C)cc1)CC2 | Active | Active | –
55 | CCOc1ccc(CNc2nc3c(c(=O)n2OC)CN(C(=O)c2ccc(C#N)cc2F)CC3)cc1 | Active | Active | –
